# Measurements published in patent US20050112064A1, “DNA-dependent MRI contrast agents” (priority 2003, published 2005).
# “Also recorded” adds a separate entry of the source. Read-outs that look alike come from different tables or passages of the source. Where no end group is shown, it is not given here.
# Assays:
# [1] = test system: supercoiled plasmid DNA (pBR322); test: DNA gel shift assay (agarose gel electrophoresis); format: binding; conditions: 5-25 μM ligand, 15 minutes, pBR322, 10 mM Tris pH 8.0
# Description: DNA Gel Shift Assays. The affinity of EuP3, EuP2, and each free peptide for supercoiled plasmid DNA was examined by agarose gel electrophoresis. Plasmid (pBR322, New England Biolabs, Inc.) was incubated for 15 minutes at room temperature with increasing concentrations of each ligand (5-25 μM), prior to the addition of loading dye. Each lane contained 1 μg plasmid (50 μM base pairs) in 10 mM Tris buffer at pH 8.0.
# [2] = Hydrolysis of bis-nitrophenylphosphate (BNPP) followed spectrophotometrically; format: biochemical; conditions: 37° C., BNPP 500 μM
# Description: Hydrolytic Phosphate Cleavage. Because the EF-Hand is physiologically strictly a structural motif, an isolated Ca-binding loop's ability to affect hydrolytic cleavage was addressed. The hydrolysis of bis-nitrophenylphosphate (BNPP) was followed spectrophotometrically under turnover conditions. The absorbance increase at 400 nm due to liberated 4-nitrophenolate was observed over the initial 10-14 hours of the reaction (<10% BNPP converted). […] Plots of absorbance vs. time were converted to concentration units (ε=18,500 M^−1 cm^−1) to give first order rate constants (Sardesai et al., 1994).
# [3] = Relaxivity (water proton relaxation) without DNA; format: physicochemical; conditions: 37° C., 50 mM HEPES, pH 7.4
# Description: (§1) P3W peptide ([…], Gd-binding EF-hand site is shaded) was synthesized and purified (>95% by HPLC) by the Caltech Peptide Synthesis Facility, Pasadena, Calif. The gadolinium complex was prepared by dissolving P3W in 50 mM HEPES buffer, pH 7.4, and adding 0.8 equivalents Gd(NO3)3 to give a 500 μM stock solution. Peptide concentration was estimated by absorbance (ε280=7290 M^−1cm^−1); the absence of uncomplexed Gd^3+ was confirmed by colorometric analysis with xylenol orange. All Gd concentrations were determined by ICP-MS (Agilent 7500). Relaxation rates were determined at 20 and 60 MHz, 37° C. using Broker NMS 120 and Brtiker mg60 Minispec spectrometers, respectively. NMRD profiles were recorded on a Koenig-Brown field cycling relaxometer; phantoms were imaged on a GE 1.5T clinical imager.
# [4] = test system: 14-mer d.s. DNA: self-complementary 5′-GAGCTAATTAGCTC-3′; test: Relaxivity in the presence of one equivalent DNA; format: physicochemical; conditions: 37° C., 50 mM HEPES, pH 7.4, one equivalent DNA
# Description: as §1
# [5] = T1-weighted MR imaging of phantoms at 1.5 tesla; conditions: 1.5 T, HEPES buffer pH 7.4, ambient temperature
# Description: FIG. 6. T1-weighted MR images at 1.5 tesla of phantoms in HEPES buffer, pH 7.4, ambient temperature. (A) 3D SPGR TR=40, TE=3.1, α=75°. Images: a) HEPES; b) 80 μM P3W; c) 80 μM DNA (14-mer duplex); d) 115 μM GdDTPA; e) 115 μM GdDTPA+DNA (1:1); f) 8.6 μM GdP3W+DNA (1:1); g) 86 μM GdP3W; h) 86 μM GdP3W+DNA (1:1); i) 86 μM GdP3W+DNA (1:1)+NaCl (150 μM). (B) 3D SPGR TR=40, TE=4.0, α=40°. Images: a) HEPES, b) 48 μM GdDTPA, c) 48 μM GdP3W; d) 48 μM GdP3W+DNA.
# as §1
# [6] = cited from earlier work
# [7] = test system: supercoiled, double-stranded DNA; test: Cleavage of supercoiled plasmid monitored by agarose gel electrophoresis; format: biochemical
# Description: The conversion of supercoiled plasmid (type I) to open circular (type II), linear (type III), or smaller fragments was monitored by agarose gel electrophoresis. Because the synthetic peptides bind strongly to DNA, thus preventing the observation of products, the peptides were chelated prior to electrophoresis (Falke et al., 1994). At the point each reaction was quenched (0.1 M EDTA), a suspension of neutral, washed, cation resin (Amberlyst, 10-20 μL) was incubated with each sample for 30 minutes, spun down, and the supernatent loaded into wells. After 24 hours of reaction (incubated at 37° C.), the concentration-dependent formation of open circular plasmid was observed. […] Over a 10-300 μM EuP3 gradient, nicking occurred from 10-150 μM, with the greatest amount of cleavage at 30 μM EuP3.
# Sequence Selective DNA Cleavage. […] This cleavage is not dependent on the strain inherent in supercoiled plasmid, as cleavage of linearized ^32P-labeled DNA oligonucleotides was observed as well. Labeled fragments were incubated with Ce(NH3)6(NO3)4 and varying concentrations of peptides P3 or P3W at 37° C. overnight and analyzed by acrylamide gel electrophoresis. Cleavage was concentration dependent, and distinct between metallopeptides.
# [8] = test system: T1, P3 (engrailed HTH / consensus EF-hand chimeric peptide) (synthetic construct); test: EMSA; conditions: Eu(III) complex EuP3; agarose gel shift, estimate from quantified band volumes; 10 mM Tris pH 8.0, room temp
# T1 sequence: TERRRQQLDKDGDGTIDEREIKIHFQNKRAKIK
# [9] = target: P4a (chimeric peptide: alpha2 and alpha3 of engrailed, minus the last turn of alpha2 and the beta-turn, with calmodulin loop I); test: measured dissociation constants for EuP4a; method not stated; self-association in the presence of Eu(III)
# [10] = 10 μM Eu/10 μM peptide, pH 7.7, 10 mM Tris buffer
# [11] = 25 μM Eu/25 μM peptide, pH 7.7, 10 mM Tris buffer
# [12] = 25 μM Eu/50 μM peptide, pH 7.7, 10 mM Tris buffer
molecule,measurement,setting,value
"[Cl][Eu]([Cl])[Cl] [EuCl3, reference compound]",gel shift / DNA affinity (in words),[1],not
same,Rates (K(obs)) of BNPP cleavage,"[2]; 10 μM Eu/0 peptide, pH 7.7, 5 mM Tris buffer",5.2 ± 0.6 s^−1 × 10^7
same,Rates (K(obs)) of BNPP cleavage,"[2]; 12 μM Eu/0 peptide, pH 7.7, 5 mM Tris buffer",5.7 ± 0.3 s^−1 × 10^7
O=C([O-])CN(CCN(CC(=O)[O-])CC(=O)O)CCN(CC(=O)[O-])CC(=O)O.[Gd+3] [GdDTPA],r1,[3]; 20 MHz,4.6 mM⁻¹ s⁻¹
same,r1,[3]; 60 MHz,3.5 mM⁻¹ s⁻¹
same,r1 + DNA,[4]; 20 MHz,4.9 mM⁻¹ s⁻¹
same,r1 + DNA,[4]; 60 MHz,3.5 mM⁻¹ s⁻¹
same,"signal / contrast in T1-weighted image, with DNA (1:1)",[5],did not increase the signal
same,"signal / contrast in T1-weighted image, without DNA",[5],difficult to discern
O=C([O-])CN(CCN(CC(=O)[O-])C[C@H](COP(=O)([O-])OC1CCC(c2ccccc2)(c2ccccc2)CC1)N(CC(=O)[O-])CC(=O)[O-])CC(=O)[O-].[Gd+3].[H+].[H+].[H+] [MS-325],relaxivity,[6]; 60 MHz,23 mM⁻¹ s⁻¹
EuP3: Eu(III) metallopeptide of P3 (TERRRQQLDKDGDGTIDEREIKIHFQNKRAKIK),gel shift / DNA affinity (in words),[1],gel shift and disappearance of type I plasmid occurs; also recorded: DNA-binding affinity in the micromolar regime
same,Rates (K(obs)) of BNPP cleavage,[2]; [10],6.0 s^−1 × 10^7
same,Rates (K(obs)) of BNPP cleavage,[2]; [11],7.3 s^−1 × 10^7
same,Rates (K(obs)) of BNPP cleavage,[2]; [12],20.6 s^−1 × 10^7
same,Rates (K(obs)) of BNPP cleavage,"[2]; 50 μM Eu/50 μM peptide, pH 7.7, 5 mM Tris buffer",17.5 ± 4 s^−1 × 10^7
same,Rates (K(obs)) of BNPP cleavage,"[2]; 50 μM Eu/100 μM peptide, pH 7.7, 5 mM Tris buffer",11.5 ± 4 s^−1 × 10^7
same,dependence of cleavage activity on increasing concentration,[7],falls off with increasing concentration
same,concentration range in which nicking occurred,[7]; 10-300 μM EuP3 gradient,10 to 150 µM
same,concentration with the greatest amount of cleavage,[7]; 10-300 μM EuP3 gradient,30 µM
same,cleavage of supercoiled DNA (in words),[7]; 37° C.,"catalyzes the cleavage of supercoiled, double-stranded DNA"
EuP4a: Eu(III) metallopeptide of P4a (TERRRFDKDGNGYISAAELRHVKIWFQNKRAKIK),Rates (K(obs)) of BNPP cleavage,[2]; [10],11.3 s^−1 × 10^7
same,Rates (K(obs)) of BNPP cleavage,[2]; [11],56.3 s^−1 × 10^7
same,Rates (K(obs)) of BNPP cleavage,[2]; [12],62.0 s^−1 × 10^7
same,Rates (K(obs)) of BNPP cleavage,"[2]; 50 μM Eu/50 μM peptide, pH 7.7, 10 mM Tris buffer",149.5 s^−1 × 10^7
same,Rates (K(obs)) of BNPP cleavage,"[2]; 50 μM Eu/100 μM peptide, pH 7.7, 10 mM Tris buffer",212.0 s^−1 × 10^7
same,dependence of cleavage activity on increasing concentration,[7],does not
"Gd-TREN-1-Me=3,2-HOPO",relaxivity,[6]; 20 MHz and 37° C.,6 to 11 mM⁻¹ s⁻¹
pBR322 supercoiled plasmid,Kd,[8],20 µM
TERRRFDKDGNGYISAAELRHVKIWFQNKRAKIK (also: Eu(III) complex),Kdim (dimerization constant),[9],> 300 µM
